Test results taken from the NIST ThermoML archive (doi:10.1016/j.jct.2015.02.023).
Numbers after ± are expanded uncertainties.

Experiment: activity coefficient (dimensionless); of the first substance listed, at infinite dilution; xn = mol fraction of the nth substance listed
Conditions: 313.15 K; 101.33 kPa; Liquid; Chromatography; x1 = 0

Compound | activity coefficient
CCC[N+](=O)[O-] [1-nitropropane] + CCn1cc[n+](C)c1.CO[PH](=O)[O-] | 2.68 ± 0.18
C#CCCCCC [1-heptyne] + CCn1cc[n+](C)c1.CO[PH](=O)[O-] | 10.2 ± 0.7
CCCCCCCCCCC [undecane] + CCn1cc[n+](C)c1.CO[PH](=O)[O-] | 1340 ± 93
ClC(Cl)Cl [trichloromethane] + CO[PH](=O)[O-].Cn1cc[n+](C)c1 | 0.39 ± 0.03
CCCCCCCCCCCCCC [tetradecane] + CCn1cc[n+](C)c1.CO[PH](=O)[O-] | 3490 ± 240
C1COCCO1 [1,4-dioxane] + CCn1cc[n+](C)c1.CO[PH](=O)[O-] | 3.4 ± 0.23
CCCCCCCCCCCCCC [tetradecane] + CO[PH](=O)[O-].Cn1cc[n+](C)c1 | 3560 ± 250
CCC(C)=O [butanone] + CCn1cc[n+](C)c1.CO[PH](=O)[O-] | 3.49 ± 0.24
Cc1ccc(C)cc1 [1,4-dimethylbenzene] + CCn1cc[n+](C)c1.CO[PH](=O)[O-] | 16.9 ± 1.2
C1COCCO1 [1,4-dioxane] + CO[PH](=O)[O-].Cn1cc[n+](C)c1 | 3.73 ± 0.25
CCc1ccccc1 [ethylbenzene] + CCn1cc[n+](C)c1.CO[PH](=O)[O-] | 11.4 ± 0.8
Cc1ccc(C)cc1 [1,4-dimethylbenzene] + CO[PH](=O)[O-].Cn1cc[n+](C)c1 | 23.4 ± 1.6
c1ccsc1 [thiophene] + CCn1cc[n+](C)c1.CO[PH](=O)[O-] | 1.99 ± 0.14
CCC(C)=O [butanone] + CO[PH](=O)[O-].Cn1cc[n+](C)c1 | 5.52 ± 0.38
CCOCC [diethyl ether] + CCn1cc[n+](C)c1.CO[PH](=O)[O-] | 1.99 ± 0.14
CC1CCCC1 [methylcyclopentane] + CCn1cc[n+](C)c1.CO[PH](=O)[O-] | 76 ± 5
ClC(Cl)(Cl)Cl [tetrachloromethane] + CCn1cc[n+](C)c1.CO[PH](=O)[O-] | 4.38 ± 0.3

Compound | activity coefficient
Cc1cccc(C)c1 [1,3-dimethylbenzene] + CO[PH](=O)[O-].Cn1cc[n+](C)c1 | 24.5 ± 1.7
C=O [methanal] + CCn1cc[n+](C)c1.CO[PH](=O)[O-] | 0.059
CCC(=O)CC [pentan-3-one] + CO[PH](=O)[O-].Cn1cc[n+](C)c1 | 10.2 ± 0.7
CCCCCCCCCCCC [dodecane] + CCn1cc[n+](C)c1.CO[PH](=O)[O-] | 1740 ± 120
C#CCCCC [1-hexyne] + CCn1cc[n+](C)c1.CO[PH](=O)[O-] | 6.24 ± 0.43
c1ccsc1 [thiophene] + CO[PH](=O)[O-].Cn1cc[n+](C)c1 | 2.47 ± 0.17
CC#N [acetonitrile] + CCn1cc[n+](C)c1.CO[PH](=O)[O-] | 1.08 ± 0.07
ClCCl [dichloromethane] + CO[PH](=O)[O-].Cn1cc[n+](C)c1 | 0.57 ± 0.04
CCCCCCCCCCCC [dodecane] + CO[PH](=O)[O-].Cn1cc[n+](C)c1 | 2350 ± 160
CCCCCCCCCC [decane] + CO[PH](=O)[O-].Cn1cc[n+](C)c1 | 1220 ± 84
CCCCCCCC [octane] + CCn1cc[n+](C)c1.CO[PH](=O)[O-] | 461 ± 32
ClC(Cl)Cl [trichloromethane] + CCn1cc[n+](C)c1.CO[PH](=O)[O-] | 0.277 ± 0.03
ClCCl [dichloromethane] + CCn1cc[n+](C)c1.CO[PH](=O)[O-] | 0.502 ± 0.038
Cc1ccccc1 [toluene] + CCn1cc[n+](C)c1.CO[PH](=O)[O-] | 6.53 ± 0.45
C#CCCCC [1-hexyne] + CO[PH](=O)[O-].Cn1cc[n+](C)c1 | 12.7 ± 0.87
CCCCCCCCC [nonane] + CCn1cc[n+](C)c1.CO[PH](=O)[O-] | 617 ± 42

Same assay, conditions: 323.15 K; 101.33 kPa; Liquid; Chromatography; x1 = 0

Compound | activity coefficient
ClC(Cl)Cl [trichloromethane] + CO[PH](=O)[O-].Cn1cc[n+](C)c1 | 0.43 ± 0.04
CCCCCCCCCCCCCC [tetradecane] + CO[PH](=O)[O-].Cn1cc[n+](C)c1 | 3220 ± 220
C1COCCO1 [1,4-dioxane] + CO[PH](=O)[O-].Cn1cc[n+](C)c1 | 3.72 ± 0.25
Cc1ccc(C)cc1 [1,4-dimethylbenzene] + CO[PH](=O)[O-].Cn1cc[n+](C)c1 | 23.4 ± 1.6
CCC(C)=O [butanone] + CO[PH](=O)[O-].Cn1cc[n+](C)c1 | 5.16 ± 0.35
Cc1cccc(C)c1 [1,3-dimethylbenzene] + CO[PH](=O)[O-].Cn1cc[n+](C)c1 | 24.4 ± 1.7
CCC(=O)CC [pentan-3-one] + CO[PH](=O)[O-].Cn1cc[n+](C)c1 | 10.1 ± 0.7
c1ccsc1 [thiophene] + CO[PH](=O)[O-].Cn1cc[n+](C)c1 | 2.54 ± 0.17
ClCCl [dichloromethane] + CO[PH](=O)[O-].Cn1cc[n+](C)c1 | 0.65 ± 0.04
CCCCCCCCCCCC [dodecane] + CO[PH](=O)[O-].Cn1cc[n+](C)c1 | 1920 ± 130
CCCCCCCCCC [decane] + CO[PH](=O)[O-].Cn1cc[n+](C)c1 | 1210 ± 84
C#CCCCC [1-hexyne] + CO[PH](=O)[O-].Cn1cc[n+](C)c1 | 13 ± 0.88

Same assay, conditions: 333.15 K; 101.33 kPa; Liquid; Chromatography; x1 = 0

Compound | activity coefficient
CCC[N+](=O)[O-] [1-nitropropane] + CCn1cc[n+](C)c1.CO[PH](=O)[O-] | 2.69 ± 0.18
C#CCCCCC [1-heptyne] + CCn1cc[n+](C)c1.CO[PH](=O)[O-] | 11.1 ± 0.8
CCCCCCCCCCC [undecane] + CCn1cc[n+](C)c1.CO[PH](=O)[O-] | 1080 ± 74
ClC(Cl)Cl [trichloromethane] + CO[PH](=O)[O-].Cn1cc[n+](C)c1 | 0.48 ± 0.04
CCCCCCCCCCCCCC [tetradecane] + CCn1cc[n+](C)c1.CO[PH](=O)[O-] | 3010 ± 210
C1COCCO1 [1,4-dioxane] + CCn1cc[n+](C)c1.CO[PH](=O)[O-] | 3.55 ± 0.24
CCCCCCCCCCCCCC [tetradecane] + CO[PH](=O)[O-].Cn1cc[n+](C)c1 | 2980 ± 210
CCC(C)=O [butanone] + CCn1cc[n+](C)c1.CO[PH](=O)[O-] | 3 ± 0.2
CCO [ethanol] + CCn1cc[n+](C)c1.CO[PH](=O)[O-] | 0.148 ± 0.029
Cc1ccc(C)cc1 [1,4-dimethylbenzene] + CCn1cc[n+](C)c1.CO[PH](=O)[O-] | 18 ± 1.2
C1COCCO1 [1,4-dioxane] + CO[PH](=O)[O-].Cn1cc[n+](C)c1 | 3.69 ± 0.25
CCc1ccccc1 [ethylbenzene] + CCn1cc[n+](C)c1.CO[PH](=O)[O-] | 11.6 ± 0.8
Cc1ccc(C)cc1 [1,4-dimethylbenzene] + CO[PH](=O)[O-].Cn1cc[n+](C)c1 | 22.7 ± 1.6
c1ccsc1 [thiophene] + CCn1cc[n+](C)c1.CO[PH](=O)[O-] | 2.16 ± 0.15
CCC(C)=O [butanone] + CO[PH](=O)[O-].Cn1cc[n+](C)c1 | 4.66 ± 0.32
CCOCC [diethyl ether] + CCn1cc[n+](C)c1.CO[PH](=O)[O-] | 2.43 ± 0.17
ClC(Cl)(Cl)Cl [tetrachloromethane] + CCn1cc[n+](C)c1.CO[PH](=O)[O-] | 4.96 ± 0.34
Cc1cccc(C)c1 [1,3-dimethylbenzene] + CO[PH](=O)[O-].Cn1cc[n+](C)c1 | 23.6 ± 1.6
C=O [methanal] + CCn1cc[n+](C)c1.CO[PH](=O)[O-] | 0.084 ± 0.03
